The values below come from patent US4100278A, “Novel benzazepines” (Roussel Uclaf, priority 1976, dated 1978).

The term ED50 denotes the dose at which the effect has come halfway, by size or by number of responders. In general, LD50 refers to the dose expected to kill half of the subjects tested. What is called inhibition is the relative decrease from the control value, in per cent.

Structures are written as SMILES. Structures can show the parent of a compound that is named as a salt.

The subject of data set [1] is effects of nialamide (inhibitor of monoamine oxidase) - hyperactive motility. Put plainly: Potentialization of effects of IMAO (nialamide), actimetric counting in mice. Further details: key to the marks not given beside the values. As to conditions: 30 minutes after nialamide 100 mg/kg i.p., counts totaled every 30 minutes for 6 hours. The data set is classed as in vivo.

For data set [2], the system named is effects of 5-hydroxytryptophane (5 HTP). Put plainly: Potentialization of effects of 5 HTP in mice (trembling). The conditions noted are these: Mus musculus, test product i.p. one hour before 200 mg/kg 5 HTP i.p., observed every 15 minutes for an hour, read-out: MAD (minimum active dose). Format: in vivo. From the text:
The administration of 5-hydroxytryptophane (5 HTP) to mice pretreated with an antidepressive agent induces in the animals a particular behavoir, namely the appearance of trembling.

For data set [3], the system named is L-dopa effects. Put plainly: Potentialization of L-dopa effects in mice pretreated with iproniazide. The data set is classed as in vivo. As to conditions: Mus musculus, ip; male mice, test product i.p. one hour before L-dopa 100 mg/kg i.p.; iproniazide 75 mg/kg i.p. 18 hours before; read-out: ED50 (dose at which 50% of the L-dopa effects were potentialized). As for the experimental part: The administration of L-dopa to mice pretreated with iproniazide 18 hours earlier produces a certain number of symptoms: muscular hypertonicity, hyperactivity, agitation, crying, aggressiveness, salivation and exophthalmia. The intensity of these effects is potentialized by administration of an antidepressive agent one hour before the L-dopa administration.
Male mice received intraperitoneally 75 mg/kg of iproniazide 18 hours before the start of the test and the test products in aqueous solution were administered intraperitoneally in increasing doses. The L-dopa was intraperitoneally administered at a dose of 100 mg/kg one hour later and the symptoms observed 15 and 30 minutes after the L-dopa administration were evaluated on a scale of 0 to 3 for each mouse and the values were totaled for each dose.

Data set [4] is described as follows: Acute toxicity (LD50) in mice. The conditions noted are these: mouse, in vivo, ip, intraperitoneal, mortality at 48 hours. As for the experimental part: The LD50, dose which killed 50% of mice was determined by intraperitoneal administration of the test compounds and the mortality rate was determined of 48 hours.
Data set [5] deals with uptake of serotonine (5 HT), purified synaptosoma from whole brain. Put plainly: Inhibition of uptake of serotonine in vitro (Test No. 1). The data set is classed as biochemical, female rats. As to conditions: rat brain synaptosoma, 37° C, 5 minutes, C^14 - 5 HT 10^-7 M; read-out: 50% inhibiting concentration (IC 50) of uptake of C^14 - 5 HT (Test No. 1). As for the experimental part:
The inhibition of uptake of serotonine (5 HT) was measured with purified synaptosoma prepared by starting from the whole brain of female rats 19-21 days old by the technique of Kannengiesser et al [Biochemical Pharmacology, Vol. 22 (1973), p. 73]. The test products at different concentrations were incubated with the preparation at 37° C for 5 minutes in the presence of C^14 - 5 HT at a concentration of 10^-7 M. The 50% inhibiting concentration (IC 50) of the products was graphically determined as the dose that inhibited by 50% the uptake of C^14 - 5 HT in the synaptosma.

For data set [6], the system named is uptake of serotonine (C^14 - 5 HT), brain synaptosoma. Put plainly: Inhibition of uptake of serotonine in vivo (Test No. 2). As to conditions: Rattus norvegicus, ip; female rats 19 to 21 days old, 10 mg/kg i.p., brain removed after 30 minutes; read-out: % inhibition of uptake of C^14 - 5 HT with respect to the controls (Test No. 2). As for the experimental part:
The test products were administered intraperitoneally to groups of female rats 19 to 21 days old at doses from 5 to 20 mg/kg. After 30 minutes, the brain was removed and the synaptosoma was prepared and was placed in an incubator in the presence of C^14 - 5 HT as indicated previously. […] The activity is expressed in % inhibition with respect to the controls at a dose of 10 mg/kg and the results are reported in Table V.

With `NCC1CCc2ccccc2NC1.O=C(O)/C=C/C(=O)O` (centres unmarked) [Example 1, 2,3,4,5-tetrahydro-[1H]-1-benzazepine-3-methanamine fumarate], the “Potentialization of nialamide for the dose” value (shortened to “Potentialization of nialamide”) in data set [1] (1 mg/kg i.p.) is “++”. The minimal effective dose in data set [2] came to 50 mg/kg. Further, the ED50 in data set [3] worked out at 10 mg/kg. For the same molecule, the LD50 at 48 h in data set [4] is 300 mg/kg.
With `CNCC1CCc2ccccc2NC1.Cl.Cl` (centres unmarked) [Example 2, N-methyl-2,3,4,5-tetrahydro-[1H]-1-benzazepine-3-methanamine dihydrochloride], the “Potentialization of nialamide” value in data set [1] (5 mg/kg i.p.) is “+++”. In addition, in data set [2], the minimal effective dose was found to be 10 mg/kg. In data set [4], this molecule registered an LD50 at 48 h of 250 mg/kg. In addition, the IC50 in data set [5] stood at 1300 nM. The inhibition at 10 mg/kg in data set [6] was determined as 58%.
For the molecule `CNCC1CCc2ccccc2N(C)C1` (centres unmarked) [Example 3, Di-[N, 1-dimethyl-2,3,4,5-tetrahydro-[1H]-1-benzazepine-3-methanamine]-fumarate], the “Potentialization of nialamide” value in data set [1] (5 mg/kg i.p.) is “++”. For the same molecule, the minimal effective dose in data set [2] came out at 50 mg/kg. Also, the ED50 in data set [3] turned out to be 20 mg/kg. The molecule further registered a 50% lethal dose (LD50) at 48 h in data set [4] of 250 mg/kg. Further, the IC50 in data set [5] came to 1300 nM. In data set [6], the inhibition at 10 mg/kg amounted to 40%.
For `NC1CCc2ccccc2NC1` (centres unmarked) [Example 4, di-[2,3,4,5-tetrahydro-[1H]-1-benzazepine-3-amine]-fumarate], in data set [1] (20 mg/kg i.p.), the “Potentialization of nialamide” value is recorded as “++”. In addition, in data set [2], the minimal effective dose was 50 mg/kg. Further, the ED50 in data set [3] stood at 50 mg/kg. In data set [4], this molecule came in with an LD50 at 48 h of 300 mg/kg.
Consider `CNC1CCc2ccccc2N(C)C1` (centres unmarked) [Example 5, di-[N,1-dimethyl-2,3,4,5-tetrahydro-[1H]-1-benzazepine-3-amine]-fumarate], for which the minimal effective dose in data set [2] is 50 mg/kg. In addition, the LD50 at 48 h in data set [4] amounted to 150 mg/kg.
Taken in the same sequence, the figures for `CNC1CCc2ccccc2NC1` (centres unmarked) [Example 6, di-[N-methyl-2,3,4,5-tetrahydro-[1H]-1-benzazepine-3-amine] fumarate] were 20 mg/kg and 250 mg/kg.
